The text below walks through data of ChEMBL document CHEMBL5236654, “Fine-tuning of nitrogen-containing bisphosphonate esters that potently induce degradation of HMG-CoA reductase” (Bioorg Med Chem, 2023).

pEC50: −log10 of the molar value.

The target in the first assay is T1, 3-hydroxy-3-methylglutaryl-coenzyme A reductase (Homo sapiens, UniProt P04035).
T1 sequence (P04035 whole entry): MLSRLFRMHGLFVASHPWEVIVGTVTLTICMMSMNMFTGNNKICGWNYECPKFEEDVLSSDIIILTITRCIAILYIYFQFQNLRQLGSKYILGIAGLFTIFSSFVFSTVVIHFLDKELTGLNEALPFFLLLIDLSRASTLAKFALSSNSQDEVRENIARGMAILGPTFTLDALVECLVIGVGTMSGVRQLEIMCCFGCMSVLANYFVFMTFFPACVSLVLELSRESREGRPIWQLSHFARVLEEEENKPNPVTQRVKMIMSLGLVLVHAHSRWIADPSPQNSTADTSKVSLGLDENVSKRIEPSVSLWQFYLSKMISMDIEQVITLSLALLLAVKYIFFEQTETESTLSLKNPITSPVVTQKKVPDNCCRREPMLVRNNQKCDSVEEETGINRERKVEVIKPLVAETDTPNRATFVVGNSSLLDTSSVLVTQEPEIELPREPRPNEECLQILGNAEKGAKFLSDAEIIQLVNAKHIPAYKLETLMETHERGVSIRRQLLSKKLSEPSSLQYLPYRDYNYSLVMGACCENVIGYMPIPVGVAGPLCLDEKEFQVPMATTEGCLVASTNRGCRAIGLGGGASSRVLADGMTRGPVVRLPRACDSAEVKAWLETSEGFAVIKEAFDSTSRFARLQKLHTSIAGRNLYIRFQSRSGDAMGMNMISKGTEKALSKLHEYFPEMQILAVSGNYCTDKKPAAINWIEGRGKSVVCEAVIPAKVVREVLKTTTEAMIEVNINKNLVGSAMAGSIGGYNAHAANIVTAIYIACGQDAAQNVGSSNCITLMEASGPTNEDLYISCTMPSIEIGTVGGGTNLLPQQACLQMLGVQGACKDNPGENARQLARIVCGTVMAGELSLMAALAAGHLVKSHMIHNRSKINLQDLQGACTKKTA
In words: Induction of HMGCR degradation in human HepG2 cells incubated for 3 hrs by densitometric analysis. Type of assay: cell-based.
As usually defined, the pEC50 is the EC50 on a negative log10 scale, so that one unit is a factor of ten. Higher therefore signals a small EC50. With `CCOP(=O)(OCC)C(Cc1cc(C(C)(C)C)c(O)c(C(C)(C)C)c1)P(=O)(OCC)OCC`, the pEC50 was 5.96.

The next assay addresses T1, 3-hydroxy-3-methylglutaryl-coenzyme A reductase. Description: Induction of HMGCR degradation in HEK293 cells incubated for 4 hrs by luciferase based assay. Type of assay: cell-based.
With `CC(C)OP(=O)(OC(C)C)C(Cc1cc(C(C)(C)C)nc(C23CC4CC(CC(C4)C2)C3)c1)P(=O)(OC(C)C)OC(C)C`, the pEC50 was 5.65. For the compound `CC(C)OP(=O)(OC(C)C)C(Cc1cc(C(C)(C)CF)nc(C(C)(C)CF)c1)P(=O)(OC(C)C)OC(C)C`, the pEC50 is 7.07. On the same count and under the same terms, under `CCCC(C)(C)c1cc(CC(P(=O)(OC(C)C)OC(C)C)P(=O)(OC(C)C)OC(C)C)cc(C(C)(C)C)n1` stands 6.47; under `CCOP(=O)(OCC)C(Cc1cc(C(C)(C)C)nc(C(C)(C)C)c1)P(=O)(OCC)OCC`, 6.47.

Consider `CC(C)OP(=O)(OC(C)C)C(Cc1cc(C2CCCCC2)nc(C(C)(C)C)c1)P(=O)(OC(C)C)OC(C)C`, for which the pEC50 is 6.22. Still for that read-out and setting: in the case of `CC(C)OP(=O)(OC(C)C)C(Cc1cc(C(C)(C)C)nc(C(C)(C)CO)c1)P(=O)(OC(C)C)OC(C)C` it was 6.41. Same read-out and setting: in the case of `CC(C)OP(=O)(OC(C)C)C(Cc1cc(C23CC4CC(CC(C4)C2)C3)nc(C23CC4CC(CC(C4)C2)C3)c1)P(=O)(OC(C)C)OC(C)C` it was less than 5.00; in that of `CC(C)COP(=O)(OCC(C)C)C(Cc1cc(C(C)(C)C)nc(C(C)(C)C)c1)P(=O)(OCC(C)C)OCC(C)C`, less than 5.00; in that of `CCC(CF)(CF)c1cc(CC(P(=O)(OC(C)C)OC(C)C)P(=O)(OC(C)C)OC(C)C)cc(C(C)(C)C)n1`, 6.99. The same measure, in the same setting: in the case of `CCCCOP(=O)(OCCCC)C(Cc1cc(C(C)(C)C)nc(C(C)(C)C)c1)P(=O)(OCCCC)OCCCC` it was less than 5.00; in that of `CC(C)OP(=O)(OC(C)C)C(Cc1cc(C(C)(C)C)nc(C(C)(C)C)n1)P(=O)(OC(C)C)OC(C)C`, 6.35; in that of `CCC(C)(C)c1cc(CC(P(=O)(OC(C)C)OC(C)C)P(=O)(OC(C)C)OC(C)C)cc(C(C)(C)C)n1`, 6.82.

Compound `CC(C)OP(=O)(OC(C)C)C(Cc1cc(Cc2ccccc2)nc(C(C)(C)C)c1)P(=O)(OC(C)C)OC(C)C` had a pEC50 of 6.06. For `CCC(CC)c1cc(CC(P(=O)(OC(C)C)OC(C)C)P(=O)(OC(C)C)OC(C)C)cc(C(C)(C)C)n1`, the pEC50 was 6.14. On the same count and under the same terms, under `CC(C)(C)c1cc(CC(P(=O)(OCC2CC2)OCC2CC2)P(=O)(OCC2CC2)OCC2CC2)cc(C(C)(C)C)n1` stands less than 5.00; under `CCCCC(CC)c1cc(CC(P(=O)(OC(C)C)OC(C)C)P(=O)(OC(C)C)OC(C)C)cc(C(C)(C)C)n1` (centres undefined), 6.00. On the same count and under the same terms, in the case of `CCC(CF)(CF)c1cc(CC(P(=O)(OC(C)C)OC(C)C)P(=O)(OC(C)C)OC(C)C)cc(C(CC)(CF)CF)n1` it was 6.45. Same read-out and setting: in the case of `CC(C)OP(=O)(OC(C)C)C(Cc1cc(C(C)C)nc(C(C)(C)C)c1)P(=O)(OC(C)C)OC(C)C` it was 6.45; in that of `CC(C)OP(=O)(OC(C)C)C(Cc1cc(C(C)(C)C)nc(C(C)(C)C)c1)P(=O)(OC(C)C)OC(C)C`, 6.88. `CC(C)OP(=O)(OC(C)C)C(Cc1cc(C(C)(C)C)nc(C(C)(C)COCc2ccccc2)c1)P(=O)(OC(C)C)OC(C)C` had a pEC50 of 6.51. Same read-out and setting: under `CC(C)OP(=O)(OC(C)C)C(Cc1cc(C(C)(C)C)nc2ccccc12)P(=O)(OC(C)C)OC(C)C` stands 5.84; under `CC(C)OP(=O)(OC(C)C)C(Cc1cc(C(C)(C)C)cc(C(C)(C)C)n1)P(=O)(OC(C)C)OC(C)C`, 6.16.

On to `COCOCC(C)(C)c1cc(CC(P(=O)(OC(C)C)OC(C)C)P(=O)(OC(C)C)OC(C)C)cc(C(C)(C)C)n1`, for which the pEC50 is 6.31. On the same count and under the same terms, in the case of `CCC(C)(C)c1cc(CC(P(=O)(OC(C)C)OC(C)C)P(=O)(OC(C)C)OC(C)C)cc(C(C)(C)CC)n1` it was 7.01; in that of `CC(C)OP(=O)(OC(C)C)C(Cc1cc(C(C)(C)C)nc(C(C)(C)CF)c1)P(=O)(OC(C)C)OC(C)C`, 7.01; in that of `CCCOP(=O)(OCCC)C(Cc1cc(C(C)(C)C)nc(C(C)(C)C)c1)P(=O)(OCCC)OCCC`, 6.08. `CC(C)OP(=O)(OC(C)C)C(Cc1cc(C2CCCCC2)nc(C2CCCCC2)c1)P(=O)(OC(C)C)OC(C)C` had a pEC50 of less than 5.00.

The next assay addresses T2, 3-hydroxy-3-methylglutaryl-coenzyme A reductase (Cricetulus griseus, UniProt P00347).
T2 sequence (P00347 whole entry): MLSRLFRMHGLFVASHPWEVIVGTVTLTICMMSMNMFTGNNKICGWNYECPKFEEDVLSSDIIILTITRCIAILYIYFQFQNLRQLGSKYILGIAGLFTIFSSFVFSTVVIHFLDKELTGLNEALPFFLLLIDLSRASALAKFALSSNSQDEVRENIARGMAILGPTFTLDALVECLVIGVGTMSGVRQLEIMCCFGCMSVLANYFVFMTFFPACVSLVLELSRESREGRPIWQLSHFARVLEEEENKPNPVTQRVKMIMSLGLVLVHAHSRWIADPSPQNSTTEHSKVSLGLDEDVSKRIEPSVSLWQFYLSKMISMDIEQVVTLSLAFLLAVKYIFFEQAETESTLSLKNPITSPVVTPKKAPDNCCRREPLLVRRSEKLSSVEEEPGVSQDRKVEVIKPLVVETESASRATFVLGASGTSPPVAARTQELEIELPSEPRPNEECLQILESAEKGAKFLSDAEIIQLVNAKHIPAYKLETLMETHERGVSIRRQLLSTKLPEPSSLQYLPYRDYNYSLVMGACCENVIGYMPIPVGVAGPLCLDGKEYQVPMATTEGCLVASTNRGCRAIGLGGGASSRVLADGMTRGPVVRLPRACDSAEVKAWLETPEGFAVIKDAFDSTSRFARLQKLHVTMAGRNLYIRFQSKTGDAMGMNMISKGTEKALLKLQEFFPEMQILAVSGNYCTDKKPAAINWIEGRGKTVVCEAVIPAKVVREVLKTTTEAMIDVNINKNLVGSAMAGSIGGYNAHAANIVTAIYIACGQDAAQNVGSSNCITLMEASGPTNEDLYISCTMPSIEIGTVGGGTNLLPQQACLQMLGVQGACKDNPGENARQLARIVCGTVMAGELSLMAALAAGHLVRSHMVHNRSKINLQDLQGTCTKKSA
In words: Induction of HMGCR degradation in CHO-7 cells incubated for 16 hrs by immunoblotting assay. The format is cell-based. On the technique in general: In western blotting, separated proteins are transferred to a membrane and probed.
`C=CCC(O)(CC=C)CCC[C@@H](C)[C@H]1CC[C@H]2[C@@H]3[C@@H](O)C=C4C(C)(C)[C@@H](O)CC[C@]4(C)[C@H]3CC[C@]12C` showed a pEC50 of 6.41.
